According to ChEMBL document CHEMBL3792365, “Dioxol and dihydrodioxin analogs of 2- and 3-phenylacetonitriles as potent anti-cancer agents with nanomolar activity against a variety of human cancer cells” (2016):

How the values were obtained:
Type in all cases: functional
[1] = Growth inhibition of human SNB75 cells at 10 uM after 48 hrs by sulforhodamine B assay; settings: SNB-75, 48 h, values are per cent of control
[2] = Growth inhibition of human LOXIMVI cells at 10 uM after 48 hrs by sulforhodamine B assay; settings: LOX IMVI, values are per cent of control
[3] = system: M14; assay: Growth inhibition of human M14 cells at 10 uM after 48 hrs by sulforhodamine B assay; settings: M14, 48 h, values are per cent of control
[4] = system: SK-MEL-2; assay: Growth inhibition of human SK-MEL-2 cells at 10 uM after 48 hrs by sulforhodamine B assay; settings: SK-MEL-2, 48 h, values are per cent of control
[5] = system: SK-MEL-28; assay: Growth inhibition of human SK-MEL-28 cells at 10 uM after 48 hrs by sulforhodamine B assay; settings: SK-MEL-28, 48 h, values are per cent of control
[6] = system: SK-MEL-5; assay: Growth inhibition of human SK-MEL-5 cells at 10 uM after 48 hrs by sulforhodamine B assay; settings: SK-MEL-5, 48 h, values are per cent of control
[7] = Growth inhibition of human UACC62 cells at 10 uM after 48 hrs by sulforhodamine B assay; settings: UACC-62, 48 h, values are per cent of control
[8] = Growth inhibition of human IGROV1 cells at 10 uM after 48 hrs by sulforhodamine B assay; settings: IGROV-1, 48 h, values are per cent of control
[9] = Growth inhibition of human OVCAR4 cells at 10 uM after 48 hrs by sulforhodamine B assay; settings: OVCAR-4, 48 h, values are per cent of control
[10] = Growth inhibition of human OVCAR5 cells at 10 uM after 48 hrs by sulforhodamine B assay; settings: OVCAR-5, 48 h, values are per cent of control
[11] = Growth inhibition of human OVCAR8 cells at 10 uM after 48 hrs by sulforhodamine B assay; settings: OVCAR-8, 48 h, values are per cent of control
[12] = Growth inhibition of human NCI-ADR-RES cells at 10 uM after 48 hrs by sulforhodamine B assay; settings: values are per cent of control
[13] = Growth inhibition of human SKOV3 cells at 10 uM after 48 hrs by sulforhodamine B assay; settings: SK-OV-3, 48 h, values are per cent of control
[14] = system: 786-0; assay: Growth inhibition of human 786-0 cells at 10 uM after 48 hrs by sulforhodamine B assay; settings: 786-0, 48 h, values are per cent of control
[15] = system: A498; assay: Growth inhibition of human A498 cells at 10 uM after 48 hrs by sulforhodamine B assay; settings: A498, 48 h, values are per cent of control
[16] = system: ACHN; assay: Growth inhibition of human ACHN cells at 10 uM after 48 hrs by sulforhodamine B assay; settings: values are per cent of control
[17] = Growth inhibition of human Caki1 cells at 10 uM after 48 hrs by sulforhodamine B assay; settings: CAKI-1, 48 h, values are per cent of control
[18] = Growth inhibition of human RXF393 cells at 10 uM after 48 hrs by sulforhodamine B assay; settings: RXF 393, 48 h, values are per cent of control
[19] = system: SN12C; assay: Growth inhibition of human SN12C cells at 10 uM after 48 hrs by sulforhodamine B assay; settings: values are per cent of control
[20] = Growth inhibition of human TK10 cells at 10 uM after 48 hrs by sulforhodamine B assay; settings: TK-10, 48 h, values are per cent of control
[21] = Growth inhibition of human UO31 cells at 10 uM after 48 hrs by sulforhodamine B assay; settings: UO-31, 48 h, values are per cent of control
[22] = Growth inhibition of human DU145 cells at 10 uM after 48 hrs by sulforhodamine B assay; settings: DU-145, 48 h, values are per cent of control
[23] = system: MDA-MB-231; assay: Growth inhibition of human MDA-MB-231 cells at 10 uM after 48 hrs by sulforhodamine B assay; settings: MDA-MB-231, 48 h, values are per cent of control
[24] = Growth inhibition of human Hs 578T cells at 10 uM after 48 hrs by sulforhodamine B assay; settings: values are per cent of control
[25] = system: T47D; assay: Growth inhibition of human T47D cells at 10 uM after 48 hrs by sulforhodamine B assay; settings: values are per cent of control
[26] = system: K562; assay: Growth inhibition of human K562 cells at 10 uM after 48 hrs by sulforhodamine B assay; settings: K562, 48 h, values are per cent of control
[27] = system: A549; assay: Growth inhibition of human A549/ATCC cells at 10 uM after 48 hrs by sulforhodamine B assay; settings: A549, 48 h, values are per cent of control
[28] = system: NCI-H23; assay: Growth inhibition of human NCI-H23 cells at 10 uM after 48 hrs by sulforhodamine B assay; settings: NCI-H23, 48 h, values are per cent of control
[29] = system: NCI-H322M; assay: Growth inhibition of human NCI-H322M cells at 10 uM after 48 hrs by sulforhodamine B assay; settings: values are per cent of control
[30] = system: NCI-H460; assay: Growth inhibition of human NCI-H460 cells at 10 uM after 48 hrs by sulforhodamine B assay; settings: NCI-H460, 48 h, values are per cent of control
[31] = system: NCI-H522; assay: Growth inhibition of human NCI-H522 cells at 10 uM after 48 hrs by sulforhodamine B assay; settings: NCI-H522, 48 h, values are per cent of control
[32] = Growth inhibition of human COLO205 cells at 10 uM after 48 hrs by sulforhodamine B assay; settings: COLO 205, 48 h, values are per cent of control
[33] = Growth inhibition of human HCC2998 cells at 10 uM after 48 hrs by sulforhodamine B assay; settings: HCC 2998, 48 h, values are per cent of control
[34] = Growth inhibition of human HCT116 cells at 10 uM after 48 hrs by sulforhodamine B assay; settings: HCT-116, 48 h, values are per cent of control
[35] = Growth inhibition of human HCT15 cells at 10 uM after 48 hrs by sulforhodamine B assay; settings: HCT-15, 48 h, values are per cent of control
[36] = system: HT-29; assay: Growth inhibition of human HT-29 cells at 10 uM after 48 hrs by sulforhodamine B assay; settings: HT-29, 48 h, values are per cent of control
[37] = Growth inhibition of human SW620 cells at 10 uM after 48 hrs by sulforhodamine B assay; settings: SW-620, 48 h, values are per cent of control
[38] = Growth inhibition of human SF268 cells at 10 uM after 48 hrs by sulforhodamine B assay; settings: SF-268, 48 h, values are per cent of control
[39] = Growth inhibition of human SF295 cells at 10 uM after 48 hrs by sulforhodamine B assay; settings: SF-295, 48 h, values are per cent of control
[40] = Growth inhibition of human SF539 cells at 10 uM after 48 hrs by sulforhodamine B assay; settings: SF-539, 48 h, values are per cent of control

SMILES | growth, % of control at 10 µM [1] [%] | growth, % of control at 10 µM [2] [%] | growth, % of control at 10 µM [3] [%] | growth, % of control at 10 µM [4] [%] | growth, % of control at 10 µM [5] [%] | growth, % of control at 10 µM [6] [%] | growth, % of control at 10 µM [7] [%] | growth, % of control at 10 µM [8] [%] | growth, % of control at 10 µM [9] [%] | growth, % of control at 10 µM [10] [%] | growth, % of control at 10 µM [11] [%] | growth, % of control at 10 µM [12] [%] | growth, % of control at 10 µM [13] [%] | growth, % of control at 10 µM [14] [%] | growth, % of control at 10 µM [15] [%] | growth, % of control at 10 µM [16] [%] | growth, % of control at 10 µM [17] [%] | growth, % of control at 10 µM [18] [%] | growth, % of control at 10 µM [19] [%] | growth, % of control at 10 µM [20] [%] | also measured
N#C/C(=C\c1cccnc1Cl)c1ccc2c(c1)OCO2 | 102 | 103 | 94.9 | 98.9 | 113 | 92.2 | 85.7 | 113 | 100 | 106 | 56.2 | 101 | 103 | 94 | 90.7 | 109 | 103 | 98.3 | 91.7 | 106 | growth, % of control at 10 µM [21]: 87.6%; growth, % of control at 10 µM [22]: 115%; growth, % of control at 10 µM [23]: 99.8%; growth, % of control at 10 µM [24]: 129%; growth, % of control at 10 µM [25]: 93.4%; growth, % of control at 10 µM [26]: 113%; growth, % of control at 10 µM [27]: 103%; growth, % of control at 10 µM [28]: 97.2%; growth, % of control at 10 µM [29]: 97%; growth, % of control at 10 µM [30]: 102%; growth, % of control at 10 µM [31]: 71.7%; growth, % of control at 10 µM [32]: 112%; growth, % of control at 10 µM [33]: 107%; growth, % of control at 10 µM [34]: 94%; growth, % of control at 10 µM [35]: 98.8%; growth, % of control at 10 µM [36]: 106%; growth, % of control at 10 µM [37]: 94.8%; growth, % of control at 10 µM [38]: 109%; growth, % of control at 10 µM [39]: 110%; growth, % of control at 10 µM [40]: 99.8%
N#C/C(=C\c1cccc2ccccc12)c1ccc2c(c1)OCO2 | 61.6 | 65.2 | 37.9 | 59.8 | 64.6 | 66.2 | 44.7 | 68.8 | 68.9 | 98.2 | 99 | 36.5 | 61.9 | 77.1 | 35.7 | 79.3 | 61.2 | 64.3 | 75.9 | 78.2 | growth, % of control at 10 µM [21]: 80.3%; growth, % of control at 10 µM [22]: 77.7%; growth, % of control at 10 µM [23]: 48.3%; growth, % of control at 10 µM [24]: 65.5%; growth, % of control at 10 µM [25]: 67.9%; growth, % of control at 10 µM [26]: 21.7%; growth, % of control at 10 µM [27]: 55.9%; growth, % of control at 10 µM [28]: 77.7%; growth, % of control at 10 µM [29]: 90.5%; growth, % of control at 10 µM [30]: 77.8%; growth, % of control at 10 µM [31]: 47.6%; growth, % of control at 10 µM [32]: 56%; growth, % of control at 10 µM [33]: 68.8%; growth, % of control at 10 µM [34]: 32.7%; growth, % of control at 10 µM [35]: 40.6%; growth, % of control at 10 µM [36]: 23.5%; growth, % of control at 10 µM [37]: 35.2%; growth, % of control at 10 µM [38]: 71%; growth, % of control at 10 µM [39]: 68.2%; growth, % of control at 10 µM [40]: 67.9%
